According to PubChem BioAssay AID1259334 (Broad Institute, 2017):
Active and inactive are the calls of the source. Rule as the data show it: active = AC50 below about 11 µM.

Experiment: TNFa pathway inhibition counter-screen, B-lineage cells – dose response (AID 1259334);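 also: cells stimulated with TNFa after compound preincubation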
Conditions: B cell line, TNFa signaling counterscreen reporter; at 0.0046 µM; hits give low values

| Structure (SMILES) | max activity |
| --- | --- |
| C[C@H]1CCCCO[C@H](CN(C)Cc2ccc(C(F)(F)F)cc2)[C@@H](C)CN([C@@H](C)CO)C(=O)c2cc(NC(=O)Nc3cccc4ccccc34)ccc2O1 | 7.77% (inactive) |
| C[C@@H]1CN([C@@H](C)CO)C(=O)Cc2cc(NC(=O)Cc3cn(C)c4ccccc34)ccc2O[C@H]1CN(C)Cc1ccc(C(F)(F)F)cc1 | 14% (inactive) |
| CCN1C(=O)C(CC(=O)Nc2ccc(OC)cc2)N(CCc2ccc(F)cc2)C1=S (centres undefined) | 4.9% (inactive) |

Same assay, conditions: B cell line, TNFa signaling counterscreen reporter; at 0.0135 µM; hits give low values

| Structure (SMILES) | max activity |
| --- | --- |
| O=C(c1ccncc1)N1C[C@@H]2N[C@H](C1)C2c1ccc(/C=C/c2ccccc2)cc1 (some centres undefined) | 8.12% (inactive) |
| COc1cccc(S(=O)(=O)N(C)C[C@@H]2OCc3ccccc3-c3c(n(C)c4ccccc34)C(=O)N([C@H](C)CO)C[C@H]2C)c1 | 14.6% (inactive) |
| CCc1cc2c(COC(=O)c3cc(S(=O)(=O)N4CCOCC4)ccc3F)cc(=O)oc2cc1O | 15.8% (inactive) |
| C[C@@H]1CN([C@@H](C)CO)C(=O)c2c(c3ccccc3n2C)-c2ccccc2CO[C@H]1CN(C)Cc1cccc(C(=O)Nc2ccccc2N)c1 | 9.96% (inactive) |
| COc1ccc(S(=O)(=O)N(C)C[C@@H]2Oc3ccc(NC(=O)Nc4ccc(C(F)(F)F)cc4)cc3C(=O)N([C@@H](C)CO)C[C@@H]2C)cc1 | 7.2% (inactive) |

Same assay, conditions: B cell line, TNFa signaling counterscreen reporter; at 0.042 µM; hits give low values

| Structure (SMILES) | max activity |
| --- | --- |
| CC1=NNC(=O)C1Br (centres undefined) | 52.7% (inactive) |
| N#C[C@@H]1[C@@H](c2ccc(C#CC3CCCCC3)cc2)[C@H](CO)N1C(=O)Nc1ccc(F)cc1 | 13.4% (inactive) |

Same assay, conditions: B cell line, TNFa signaling counterscreen reporter; at 0.11 µM; hits give low values

| Structure (SMILES) | max activity |
| --- | --- |
| C[C@@H]1CN([C@H](C)CO)C(=O)c2c(c3ccccc3n2C)-c2ccccc2CO[C@@H]1CN(C)S(=O)(=O)c1ccccc1C#N | 17.1% (inactive) |

Same assay, conditions: B cell line, TNFa signaling counterscreen reporter; at 0.12 µM; hits give low values

| Structure (SMILES) | max activity |
| --- | --- |
| C[C@@H]1CCCCO[C@@H](CN(C)CC2CCCCC2)[C@@H](C)CN([C@@H](C)CO)C(=O)c2cc(NC(=O)Nc3ccc(C(F)(F)F)cc3)ccc2O1 | 11.4% (inactive) |
| Cc1ccc(O)c(N=Nc2ccccc2)n1 | 62% (inactive) |
| Cc1ccc(C2(C)NC(=O)N(CC(=O)Nc3cccnc3Cl)C2=O)cc1 (centres undefined) | -17.9% (inactive) |
| C[C@]12CC[C@H](O)C[C@H]1CC[C@@H]1[C@@H]2CC[C@]2(C)[C@@H](c3ccc(=O)oc3)CC[C@]12O | 7.82% (inactive) |
| Cc1cc(C)c2c(c1)SC1=NC(c3ccccc3)(C(F)(F)F)NC(=O)N12 (centres undefined) | -5.9% (inactive) |
| CC12CN3CC(C)(CN(C1)C3c1ccc3c(c1)OCO3)C2=O (centres undefined) | -17.3% (inactive) |
| COc1cccc(NC(=O)N2CC(=O)N3[C@H](CO)[C@@H](c4ccc(C#CCC5CCCC5)cc4)[C@H]3C2)c1 | 16.8% (inactive) |

Same assay, conditions: B cell line, TNFa signaling counterscreen reporter; at 0.38 µM; hits give low values

| Structure (SMILES) | max activity |
| --- | --- |
| c1ccc(CCSc2nccn2-c2ccccc2)cc1 | 38% (inactive) |
| CC(C)(C)c1cc(/C=C(\C#N)C(N)=S)cc(C(C)(C)C)c1O | -4.66% (inactive) |
| C[C@@H]1CCCCO[C@@H](CN(C)C(=O)C2CCCCC2)[C@@H](C)CN([C@H](C)CO)C(=O)c2cc(NS(=O)(=O)c3ccccc3)ccc2O1 | 15.5% (inactive) |

Same assay, conditions: B cell line, TNFa signaling counterscreen reporter; at 1.1 µM; hits give low values

| Structure (SMILES) | max activity |
| --- | --- |
| CCCCC1C(=O)NC(=S)N(C)C1=O (centres undefined) | -7.17% (inactive) |
| O=C1C(Br)=C(c2ccccc2)C(c2ccccc2)=C1c1ccccc1 | -5.75% (inactive) |
| COc1ccc(CN2CC3(CN(C(=O)Cc4ccccc4)C3)c3c([nH]c4cc(OC)ccc34)[C@H]2CO)cc1 | 10.3% (inactive) |
| COc1ccc2c(c1)c1ncn(Cc3ccccn3)c(=O)c1n2C | -8.21% (inactive) |
| Cc1noc(C)c1NC(=O)N(C)C[C@@H]1OCCCC[C@@H](C)Oc2ccc(NC(=O)Nc3ccc(C(F)(F)F)cc3)cc2C(=O)N([C@H](C)CO)C[C@H]1C | 17% (inactive) |
| N#C[C@@H]1[C@@H](c2ccccc2-c2ccccc2)[C@@H](CO)N1C(=O)NC1CCCC1 | 20.9% (inactive) |
| C[C@H](CO)N1C[C@H](C)[C@H](CN(C)CC2CCCCC2)Oc2ccc(NC(=O)Nc3ccc(C(F)(F)F)cc3)cc2C1=O | 8.34% (inactive) |
| O=C(NCc1ccccn1)C1CCCN(S(=O)(=O)c2ccccc2)C1 (centres undefined) | 18.3% (inactive) |
| COc1ccc(-c2cnc3c(c2)C(=O)N([C@H](C)CO)C[C@@H](C)[C@@H](CN(C)C(=O)Nc2c(C)noc2C)O3)cc1 | 22.7% (inactive) |
| N=C(N)c1ccc(OCCCCCOc2ccc(C(=N)N)cc2)cc1 | 17.9% (inactive) |
| COc1cccc(S(=O)(=O)N(C)C[C@@H]2OCc3ccccc3-c3c(n(C)c4ccccc34)C(=O)N([C@H](C)CO)C[C@@H]2C)c1 | 16.8% (inactive) |
| COc1ccc2c3c([nH]c2c1)[C@H](CO)N(C(=O)Nc1cccc(F)c1)CC31CCN(S(=O)(=O)c2cccc(C)c2)CC1 | 21.6% (inactive) |
| O=C(Nc1ccc([N+](=O)[O-])cc1Cl)c1cc(Cl)ccc1O | 14.6% (inactive) |
| CCCNC(=O)N1[C@H](CO)[C@H](c2ccc(-c3cccc(OC)c3)cc2)[C@@H]1C#N | 18% (inactive) |
| COc1ccc(NC(=O)O/N=C/c2c(C)nn(C(C)(C)C)c2C)cc1 | 39.8% (inactive) |
| COc1ccccc1C(=O)Nc1ccc2c(c1)C(=O)N(C)[C@H]1CC[C@H](CC(=O)Nc3cccc(C(C)C)c3)O[C@@H]1CO2 | 37.4% (inactive) |

Same assay, conditions: B cell line, TNFa signaling counterscreen reporter; at 3.5 µM; hits give low values

| Structure (SMILES) | max activity |
| --- | --- |
| CC(=O)NCCCC(=O)NC(CCC(=O)OCc1ccccc1)C(=O)OCc1ccccc1 (centres undefined) | -20% (inactive) |
| N#C[C@@H]1[C@H](c2ccc(C#CC3CCCC3)cc2)[C@H](CO)N1C(=O)Cc1ccccn1 | -8.57% (inactive) |
| CC12CC[C@H]3[C@@H](CCC4(O)C[C@H](O)CCC34/C=N/NC(=O)Cc3ccccc3)C1(O)CCC2C1=CC(=O)OC1 (some centres undefined) | 5.28% (inactive) |
| CCSc1ccc(-c2cc(NC=O)c3ncc(-c4cccc(C(=O)N(C)C)c4)n3c2)cc1 | 45.8% (inactive) |
| C[C@@H]1CN([C@H](C)CO)C(=O)c2cc(NC(=O)Nc3cccc4ccccc34)ccc2O[C@@H](C)CCCCO[C@H]1CN(C)Cc1ccc(C(F)(F)F)cc1 | -8.53% (inactive) |
| Cc1noc(C)c1S(=O)(=O)Nc1ccc2c(c1)C(=O)N([C@@H](C)CO)C[C@H](C)[C@@H](CN(C)C(=O)Nc1cccc3ccccc13)OCCCC[C@H](C)O2 | -10.7% (inactive) |
| N#C[C@H]1[C@H](c2ccc(C#Cc3ccccc3F)cc2)[C@@H](CO)N1C(=O)C1CC1 | -17.4% (inactive) |
| Cc1ccc(-c2ccccc2[C@H]2[C@@H](C#N)N(c3ncc(-c4ccccc4)s3)[C@@H]2CO)cc1 | 7.84% (inactive) |
| O=C(C1CCC1)N1CCc2cc(S(=O)(=O)N3CCCCC3)ccc21 | -31.7% (inactive) |
| CC(C)OC(=O)CC1C(=O)NCCN1C(=S)NC(=O)c1cccs1 (centres undefined) | 7.79% (inactive) |

Same assay, conditions: B cell line, TNFa signaling counterscreen reporter; at 10 µM; hits give low values

| Structure (SMILES) | max activity |
| --- | --- |
| Cc1ccccc1S(=O)(=O)N1C[C@@H]2N[C@H](C1)C2c1ccc(-c2cccc(C#N)c2)cc1 (some centres undefined) | 22.9% (inactive) |
| CCCNC(=O)N1[C@H](CO)[C@H](c2ccc(/C=C/c3ccccc3)cc2)[C@@H]1C#N | 45.4% (inactive) |
| CCc1cnc(N2[C@H](C#N)[C@H](c3ccc(C#CCC4CCCC4)cc3)[C@@H]2CO)s1 | 32.9% (inactive) |
| CCCCc1nc2ccccc2[nH]1 | 6.54% (inactive) |
| CCCNC(=O)N1[C@H](C#N)[C@@H](c2ccc(-c3cccc(OC)c3)cc2)[C@H]1CO | 11.7% (inactive) |
| C[C@@H]1CN([C@H](C)CO)C(=O)c2c(c3ccccc3n2C)-c2ccccc2CO[C@H]1CN(C)C(=O)Nc1ccccc1C(F)(F)F | -6.36% (inactive) |
| CC(=NNC(=S)N1CC2CCC(CC2)C1)c1nccs1 | 43.9% (inactive) |
